Test results: patent US12435059B2, “AMP-activated protein kinase inhibitors and methods of making and using the same” (The Regents of the University of Colorado, priority 2019, dated 2025)
Where two headings read alike, the source gives them in different places.

Columns and labels:
Assay in all cases: biochemical
Type in all cases: binding
[1] = target: 468 kinases (Homo sapiens, UniProt O95835); details: LATS1; read-out: % Inhibition @ 100 nM
[2] = target: 468 kinases (Homo sapiens, UniProt O96017); details: CHEK2; read-out: % Inhibition @ 100 nM
[3] = target: 468 kinases (Homo sapiens, UniProt P09619); details: PDGFRB; read-out: % Inhibition @ 100 nM
[4] = target: 468 kinases (Homo sapiens, UniProt P10721, L576P); details: KIT(L576P); read-out: % Inhibition @ 100 nM
[5] = target: 468 kinases (Homo sapiens, UniProt P12931); details: SRC; read-out: % Inhibition @ 100 nM
[6] = target: 468 kinases (Homo sapiens, UniProt P36888, K663Q); details: FLT3(K663Q); read-out: % Inhibition @ 100 nM
[7] = target: 468 kinases (Homo sapiens, UniProt P36888, N841I); details: FLT3(N841I); read-out: % Inhibition @ 100 nM
[8] = target: 468 kinases (Homo sapiens, UniProt P42679); details: CTK; read-out: % Inhibition @ 100 nM
[9] = target: 468 kinases (Homo sapiens, UniProt P45985); details: MEK4; read-out: % Inhibition @ 100 nM
[10] = target: 468 kinases (Homo sapiens, UniProt P48736); details: PIK3CG; read-out: % Inhibition @ 100 nM
[11] = target: 468 kinases (Homo sapiens, UniProt P49137); details: MAPKAPK2; read-out: % Inhibition @ 100 nM
[12] = target: 468 kinases (Homo sapiens, UniProt P53350); details: PLK1; read-out: % Inhibition @ 100 nM
[13] = target: 468 kinases (Homo sapiens, UniProt P53355); details: DAPK1; read-out: % Inhibition @ 100 nM
[14] = target: 468 kinases (Homo sapiens, UniProt P53667); details: LIMK1; read-out: % Inhibition @ 100 nM
[15] = target: 468 kinases (Homo sapiens, UniProt P54764); details: EPHA4; read-out: % Inhibition @ 100 nM
[16] = target: 468 kinases (Homo sapiens, UniProt P57078); details: RIPK4; read-out: % Inhibition @ 100 nM
[17] = target: 468 kinases (Homo sapiens, UniProt Q05655); details: PRKCD; read-out: % Inhibition @ 100 nM
[18] = target: 468 kinases (Homo sapiens, UniProt Q13554); details: CAMK2B; read-out: % Inhibition @ 100 nM
[19] = target: 468 kinases (Homo sapiens, UniProt Q14680); details: MELK; read-out: % Inhibition @ 100 nM
[20] = target: 468 kinases (Homo sapiens, UniProt Q15418); details: read-out: % Inhibition @ 100 nM
[21] = target: 468 kinases (Homo sapiens, UniProt Q6DT37); details: DMPK2; read-out: % Inhibition @ 100 nM
[22] = target: 468 kinases (Homo sapiens, UniProt Q8NE63); details: HIPK4; read-out: % Inhibition @ 100 nM
[23] = target: 468 kinases (Homo sapiens, UniProt Q8NFD2); details: ANKK1; read-out: % Inhibition @ 100 nM
[24] = target: 468 kinases (Homo sapiens, UniProt Q96BR1); details: SGK3; read-out: % Inhibition @ 100 nM
[25] = target: 468 kinases (Homo sapiens, UniProt Q96PY6); details: NEK1; read-out: % Inhibition @ 100 nM
[26] = target: 468 kinases (Homo sapiens, UniProt Q9NYL2); details: ZAK; read-out: % Inhibition @ 100 nM
[27] = target: 468 kinases (Homo sapiens, UniProt Q9UEE5); details: DRAK1; read-out: % Inhibition @ 100 nM
[28] = target: 468 kinases (Homo sapiens, UniProt Q9UM73, C1156Y); details: ALK(C1156Y); read-out: % Inhibition @ 100 nM
[29] = target: 468 kinases (Homo sapiens, UniProt Q9UQM7); details: CAMK2A; read-out: % Inhibition @ 100 nM
[30] = target: 468 kinases (Homo sapiens, UniProt Q9Y463); details: DYRK1B; read-out: % Inhibition @ 100 nM
[31] = target: 468 kinases (Homo sapiens, UniProt Q9Y4K4); details: MAP4K5; read-out: % Inhibition @ 100 nM
[32] = target: 468 kinases (Plasmodium falciparum, UniProt P61075); details: PFPK5 (P.falciparum); read-out: % Inhibition @ 100 nM

Row | Compound | inhibition at 0.1 µM [1] | inhibition at 0.1 µM [2] | inhibition at 0.1 µM [3] | inhibition at 0.1 µM [4] | inhibition at 0.1 µM [5] | inhibition at 0.1 µM [6] | inhibition at 0.1 µM [7] | inhibition at 0.1 µM [8] | inhibition at 0.1 µM [9] | inhibition at 0.1 µM [10] | inhibition at 0.1 µM [11] | inhibition at 0.1 µM [12] | inhibition at 0.1 µM [13] | inhibition at 0.1 µM [14] | inhibition at 0.1 µM [15] | inhibition at 0.1 µM [16] | inhibition at 0.1 µM [17] | inhibition at 0.1 µM [18] | inhibition at 0.1 µM [19] | inhibition at 0.1 µM ([20]; RSK1(Kin.Dom.1-N-terminal)) | other results
1 | CCN(CC)CCNC(=O)c1c(C)[nH]c(/C=C2\C(=O)Nc3ccc(CCO)cc32)c1C [Compound No. 10, (Z)—N-(2-(Diethylamino)ethyl)-5-((5-(2-hydroxyethyl)-2-oxoindolin-3-ylidene)methyl)-2,4-dimethyl-1H-pyrrole-3-carboxamide] | 43% | 83% | 99.3% | 88% | 15% | 96.4% | 95.5% | 22% | 0% | 0% | 0% | 0% | 4% | 0% | 0% | 12% | 16% | 0% | 4% | 4% | inhibition at 0.1 µM ([20]; RSK1(Kin.Dom.2-C-terminal)): 0%; inhibition at 0.1 µM [21]: 0%; inhibition at 0.1 µM [22]: 28%; inhibition at 0.1 µM [23]: 53%; inhibition at 0.1 µM [24]: 0%; inhibition at 0.1 µM [25]: 9%; inhibition at 0.1 µM [26]: 10%; inhibition at 0.1 µM [27]: 71%; inhibition at 0.1 µM [28]: 90%; inhibition at 0.1 µM [29]: 6%; inhibition at 0.1 µM [30]: 75%; inhibition at 0.1 µM [31]: 52%; inhibition at 0.1 µM [32]: 0%
2 | CCN(CC)CCNC(=O)c1c(C)[nH]c(/C=C2\C(=O)Nc3ccc(CCC(N)=O)cc32)c1C [Compound No. 16, (Z)-5-((5-(3-Amino-3-oxopropyl)-2-oxoindolin-3-ylidene)methyl)-N-(2-(diethylamino)ethyl)-2,4-dimethyl-1H-pyrrole-3-carboxamide] | 17% | 93.2% | 61% | 12% | 6% | 92.9% | 85% | 16% | 97.7% | 22% | 0% | 28% | 20% | 17% | 0% | 14% | 9% | 10% | 16% | 20% | inhibition at 0.1 µM ([20]; RSK1(Kin.Dom.2-C-terminal)): 30%; inhibition at 0.1 µM [21]: 20%; inhibition at 0.1 µM [22]: 57%; inhibition at 0.1 µM [23]: 66%; inhibition at 0.1 µM [24]: 26%; inhibition at 0.1 µM [25]: 77%; inhibition at 0.1 µM [26]: 10%; inhibition at 0.1 µM [27]: 78%; inhibition at 0.1 µM [28]: 86%; inhibition at 0.1 µM [29]: 45%; inhibition at 0.1 µM [30]: 0%; inhibition at 0.1 µM [31]: 53%; inhibition at 0.1 µM [32]: 40%
